The values that follow come from paper PMC4942689, “Deciphering the function of the CNGB1b subunit in olfactory CNG channels” (Scientific Reports, 2016).

The target of one test is T1, CNGA2:A4:B1b channels (Rattus norvegicus, UniProt A0A8I5ZN27+Q00195+Q64359).
T1 construct: expressed in transfected cells; host or cells: Xenopus laevis oocytes (cRNA injection 2:1:1), excised inside-out patches
Briefly: Concentration-activation relationship, inside-out patch-clamp. The settings on record: CNGA2:A4:B1b. The format is biochemical. On the procedure:
Patch-clamp experiments were performed using an Axopatch 200B amplifier (Molecular Devices LLC, CA, U.S.A.) in the inside-out configuration. The patch pipettes for recording of macroscopic currents were pulled from borosilicate glass tubing (outer diameter 2.0 mm, inner diameter 1.0 mm; Hilgenberg GmbH, Germany). The initial resistance was 0.7–1.3 MΩ. The patches were formed as pushed inside-out patches. […] Cyclic nucleotide concentration jumps were performed using a double-barreled glass pipette mounted on a piezo-driven device. Intracellular (bath) and extracellular (pipette) solutions contained (mM) 150 KCl, 1 EGTA, 5 Hepes, pH = 7.4 with KOH. […] Currents in the absence of the cyclic nucleotide were subtracted. All patches included in this study were first tested for channel expression in the presence of a saturating ligand concentration. Only patches with large current, i.e. a large number of channels, were included in our statistics. The currents were measured at +10 mV or, if mentioned, at +100 mV.
Fits of equations to data points were performed with the 8.1G® software (OriginLab Corporation, Northampton, U.S.A.). Concentration-activation relationships were obtained by relating the actual current amplitude, I, to the maximum current amplitude elicited by a saturating concentration of ligand, Imax, and plotting this ratio as function of the ligand concentration, x. The concentration-activation data were fitted using the Hill equation
where EC50 is the ligand concentration of half maximum effect and H the Hill coefficient.
In fHcAMP the dye DY547 is coupled to
(b) Concentration-activation relationships of the CNGA2:A4:B1b channels activated by either
The currents were recorded […]
(In general: The patch-clamp technique gives a direct electrical read-out from membranes.)

The test system of a further test is CNGB1b. Also noted: method as in Nache et al., 2012; key: +: ligand binding to the respective modulatory subunits was either observed or not; −: ligand binding to the respective modulatory subunits was either observed or not. The conditions noted are these: 10 μM; construct CNGB1b; ref Nache et al., 2012; cited from earlier work.
In a further test the target is T2, CNGA2TM:B1b (Rattus norvegicus, UniProt A0A8I5ZN27+Q00195, T539M).
T2 construct: expressed in transfected cells; host or cells: Xenopus laevis oocytes (cRNA injection), excised patches
T2 sequence (Q00195 whole entry T539M): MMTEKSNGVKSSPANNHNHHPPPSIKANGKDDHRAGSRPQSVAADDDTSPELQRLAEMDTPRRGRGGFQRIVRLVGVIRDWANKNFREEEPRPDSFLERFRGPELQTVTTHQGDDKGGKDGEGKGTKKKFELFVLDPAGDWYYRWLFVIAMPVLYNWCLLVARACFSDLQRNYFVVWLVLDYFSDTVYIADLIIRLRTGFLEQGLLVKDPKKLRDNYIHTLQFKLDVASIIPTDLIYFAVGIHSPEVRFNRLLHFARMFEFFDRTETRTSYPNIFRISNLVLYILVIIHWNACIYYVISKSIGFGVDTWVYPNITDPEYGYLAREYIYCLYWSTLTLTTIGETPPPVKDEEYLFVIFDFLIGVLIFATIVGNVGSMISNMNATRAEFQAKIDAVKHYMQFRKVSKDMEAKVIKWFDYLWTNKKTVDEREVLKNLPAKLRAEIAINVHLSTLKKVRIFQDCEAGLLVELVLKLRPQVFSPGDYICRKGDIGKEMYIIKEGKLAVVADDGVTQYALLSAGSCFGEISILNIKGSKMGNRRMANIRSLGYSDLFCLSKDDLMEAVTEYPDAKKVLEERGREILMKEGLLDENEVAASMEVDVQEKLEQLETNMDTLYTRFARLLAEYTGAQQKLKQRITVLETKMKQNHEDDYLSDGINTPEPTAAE
T2 sequence (A0A8I5ZN27 1-858 isoform A0A8I5ZN27-2, stated change not applied): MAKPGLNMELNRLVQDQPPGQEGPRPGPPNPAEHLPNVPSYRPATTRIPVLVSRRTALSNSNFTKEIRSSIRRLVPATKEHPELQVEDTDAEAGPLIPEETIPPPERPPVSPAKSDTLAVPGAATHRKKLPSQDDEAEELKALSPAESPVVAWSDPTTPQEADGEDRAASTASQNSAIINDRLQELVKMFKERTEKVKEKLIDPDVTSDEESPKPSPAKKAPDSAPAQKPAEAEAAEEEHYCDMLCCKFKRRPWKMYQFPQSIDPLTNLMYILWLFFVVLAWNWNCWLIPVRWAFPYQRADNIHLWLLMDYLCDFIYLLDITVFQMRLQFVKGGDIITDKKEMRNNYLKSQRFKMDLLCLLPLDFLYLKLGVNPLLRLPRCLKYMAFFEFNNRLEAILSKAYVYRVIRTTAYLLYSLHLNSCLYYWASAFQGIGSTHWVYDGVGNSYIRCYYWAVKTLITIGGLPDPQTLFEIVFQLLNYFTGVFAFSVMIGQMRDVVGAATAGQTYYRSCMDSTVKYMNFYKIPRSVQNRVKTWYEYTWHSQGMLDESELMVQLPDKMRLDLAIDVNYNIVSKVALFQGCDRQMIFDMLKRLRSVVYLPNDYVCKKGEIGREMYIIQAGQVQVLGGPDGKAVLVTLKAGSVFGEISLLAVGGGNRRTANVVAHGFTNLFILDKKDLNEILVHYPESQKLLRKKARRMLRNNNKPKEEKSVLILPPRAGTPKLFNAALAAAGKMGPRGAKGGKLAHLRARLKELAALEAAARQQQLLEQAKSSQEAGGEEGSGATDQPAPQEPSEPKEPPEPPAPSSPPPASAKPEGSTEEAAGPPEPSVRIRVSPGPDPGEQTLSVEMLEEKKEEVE
The test is described as follows: Ligand binding, confocal patch-clamp fluorometry. Also noted: key to Ligand binding to CNGB1b: +: ligand binding to the respective modulatory subunits was either observed or not; −: ligand binding to the respective modulatory subunits was either observed or not. The source says: (§1) The channels to be studied were expressed in Xenopus oocytes. We first tested the subunit composition in our channels when coexpressing different combinations of subunits by single-channel recordings. For CNGA2:A4, CNGA2:B1b and CNGA2:A4:B1b channels we exclusively obtained the specific and easily distinguishable single-channel activity reported earlier when injecting respective amounts of RNA[7][13]. We therefore assumed that the channels formed had always the expected subunit composition. The specific binding of cyclic nucleotides and the activation of the CNG channels were measured in parallel by means of confocal patch-clamp fluorometry in excised patches, using fluorescent cyclic nucleotide derivatives. The method has been described previously.
To study ligand binding to the CNGB1b subunit selectively, the binding domain of the CNGA2 subunits was disabled by either the point mutation R538E (red crosses in the cartoons) or T539M (blue crosses in the cartoons)[13][20]. […] To this end, CNGB1b was coexpressed with CNGA2RE.
(§2) The ligand binding was measured in macropatches by patch-clamp fluorometry[41][42] combined with confocal microscopy. […] Recordings were performed with an LSM 510 or 710 confocal microscope (Zeiss, Jena, Germany) and were triggered by the ISO3 software (MFK, Niedernhausen, Germany). To distinguish between the fluorescence of the unbound ligands from that of the bound ligands, a second dye, DY647 (Dyomics, Jena, Germany), was added to the bath solution. The 543-nm and 633-nm lines of a He-Ne laser were used to excite fcAMP/fcGMP and DY647, respectively. The method of confocal patch-clamp fluorometry has been described in detail previously.

For a further test, the target named is T3, CNGA2RE:A4RE:B1bRE (Rattus norvegicus, UniProt A0A8I5ZN27+Q00195+Q64359, R1106E/R430E/R538E).
T3 construct: expressed in transfected cells; host or cells: Xenopus laevis oocytes (cRNA injection), excised inside-out patches
T3 sequence (Q00195 whole entry R538E): as the sequence (Q00195 whole entry T539M) above, with R538E, M539T counted along it
T3 sequence (Q64359 whole entry R430E): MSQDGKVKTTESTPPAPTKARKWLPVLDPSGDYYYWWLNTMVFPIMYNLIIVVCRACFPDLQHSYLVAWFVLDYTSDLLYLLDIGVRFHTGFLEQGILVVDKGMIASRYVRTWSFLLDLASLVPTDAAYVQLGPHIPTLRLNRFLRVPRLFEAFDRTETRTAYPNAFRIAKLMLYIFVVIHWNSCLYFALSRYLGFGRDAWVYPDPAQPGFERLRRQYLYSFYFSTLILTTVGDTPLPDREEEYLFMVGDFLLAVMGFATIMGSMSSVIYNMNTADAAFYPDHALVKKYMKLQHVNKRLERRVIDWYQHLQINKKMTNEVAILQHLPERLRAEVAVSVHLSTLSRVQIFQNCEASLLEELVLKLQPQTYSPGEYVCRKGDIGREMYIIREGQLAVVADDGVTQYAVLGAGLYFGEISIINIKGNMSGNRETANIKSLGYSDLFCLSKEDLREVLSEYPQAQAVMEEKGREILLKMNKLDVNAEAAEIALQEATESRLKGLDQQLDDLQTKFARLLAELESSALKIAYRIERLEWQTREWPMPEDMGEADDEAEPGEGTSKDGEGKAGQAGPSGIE
T3 sequence (A0A8I5ZN27 1-858 isoform A0A8I5ZN27-2 R657E): as the sequence (A0A8I5ZN27 1-858 isoform A0A8I5ZN27-2, stated change not applied) above, with R657E counted along it
Briefly: Ligand binding, confocal patch-clamp fluorometry. Also noted: key to Ligand binding to CNGA4 / Ligand binding to CNGB1b: +: ligand binding to the respective modulatory subunits was either observed or not; −: ligand binding to the respective modulatory subunits was either observed or not.
Description: as §1
(§3) To verify the hypothesis that the CNGB1b subunit in CNGA2:A4:B1b channels binds cyclic nucleotides, we coexpressed CNGB1b with CNGA4RE and either CNGA2RE or CNGA2TM and measured ligand binding in the presence of 10 μM fcGMP. […] To verify the specificity of the binding to the CNGB1b subunit in these heterotetrameric channels, we coexpressed the CNGB1bRE subunit with CNGA2RE and CNGA4RE.
as §2

The next test has as its target T4, CNGA2RE:A4RE:B1b (Rattus norvegicus, UniProt A0A8I5ZN27+Q00195+Q64359, R430E/R538E).
T4 construct: expressed in transfected cells; host or cells: Xenopus laevis oocytes (cRNA injection), excised inside-out patches
Briefly: Ligand binding, confocal patch-clamp fluorometry. Also noted: key to Ligand binding to CNGA4 / Ligand binding to CNGB1b: +: ligand binding to the respective modulatory subunits was either observed or not; −: ligand binding to the respective modulatory subunits was either observed or not.
Description: as §1, §3, §2

In the next test the target is T5, CNGA2TM:A4RE:B1b (Rattus norvegicus, UniProt A0A8I5ZN27+Q00195+Q64359, R430E/T539M).
T5 construct: expressed in transfected cells; host or cells: Xenopus laevis oocytes (cRNA injection), excised inside-out patches
T5 sequence (Q00195 whole entry T539M): as the sequence (Q00195 whole entry T539M) above
T5 sequence (Q64359 whole entry R430E): as the sequence (Q64359 whole entry R430E) above
T5 sequence (A0A8I5ZN27 1-858 isoform A0A8I5ZN27-2, stated change not applied): as the sequence (A0A8I5ZN27 1-858 isoform A0A8I5ZN27-2, stated change not applied) above
The test is described as follows: Ligand binding, confocal patch-clamp fluorometry. More on the design: key to Ligand binding to CNGA4 / Ligand binding to CNGB1b: +: ligand binding to the respective modulatory subunits was either observed or not; −: ligand binding to the respective modulatory subunits was either observed or not.
Description: as §1, §3, §2

The test system of another test is CNGA2TM:A4RE. More on the design: method as in Nache et al., 2012; key: +: ligand binding to the respective modulatory subunits was either observed or not; −: ligand binding to the respective modulatory subunits was either observed or not. The conditions noted are these: 10 μM; construct CNGA2TM:A4RE; ref Nache et al., 2012; cited from earlier work.
The mark [1] stands for this setting: 10 μM, construct CNGA2RE:A4RE:B1bRE.
Setting [2] is: 10 μM, construct CNGA2RE:A4RE:B1b.
Where [3] appears, read: 10 μM, construct CNGA2TM:A4RE:B1b.

T4 sequence (Q00195 whole entry R538E): as the sequence (Q00195 whole entry T539M) above, with R538E, M539T counted along it
T4 sequence (Q64359 whole entry R430E): as the sequence (Q64359 whole entry R430E) above
T4 sequence (A0A8I5ZN27 1-858 isoform A0A8I5ZN27-2, stated change not applied): as the sequence (A0A8I5ZN27 1-858 isoform A0A8I5ZN27-2, stated change not applied) above
T1 sequence (Q00195 whole entry): as the sequence (Q00195 whole entry T539M) above, with M539T counted along it
T1 sequence (Q64359 whole entry): as the sequence (Q64359 whole entry R430E) above, with E430R counted along it
T1 sequence (A0A8I5ZN27 1-858 isoform A0A8I5ZN27-2): as the sequence (A0A8I5ZN27 1-858 isoform A0A8I5ZN27-2, stated change not applied) above

A word on the EC50: it is the midpoint of the concentration-response curve. `Nc1nc2c(ncn2[C@@H]2O[C@@H]3COP(=O)(O)O[C@H]3[C@H]2O)c(=O)[nH]1` [cGMP]: the EC50 at CNGA2:A4:B1b channels (Equation 1) was determined as 760 nM. Besides, the H at CNGA2:A4:B1b channels (Hill coefficient) was found to be 2.0.

As to 8-[DY-547]-AET-cGMP [fcGMP], the “Ligand binding to CNGB1b” value in the test with CNGB1b was “−”; at CNGA2TM:B1b (10 μM, construct CNGA2TM:B1b) it was “−”; at CNGA2RE:A4RE:B1bRE (setting [1]) it was “−”; on CNGA2RE:A4RE:B1b (setting [2]), “+”; on CNGA2TM:A4RE:B1b (setting [3]) it was “+”. In addition, the “binding to CNGB1b (in words)” value on CNGA2TM:B1b (10 μM fcGMP, coexpressed with disabled CNGA2 (CNGA2TM)) was “does not bind”. For the same compound, at CNGA2RE:A4RE:B1bRE (10 μM fcGMP, CNGB1bRE with CNGA2RE and CNGA4RE), the “binding (in words)” value is reported as “essentially diminished”. For the same compound, the “Ligand binding to CNGA4” value on CNGA2RE:A4RE:B1bRE (setting [1]), at CNGA2RE:A4RE:B1b (setting [2]), on CNGA2TM:A4RE:B1b (setting [3]) and with CNGA2TM:A4RE was “−” in each case. Also, the “binding to the CNGB1b subunit (in words)” value on CNGA2RE:A4RE:B1b (10 μM fcGMP, CNGB1b with CNGA4RE and CNGA2RE) was “robust binding”; on CNGA2TM:A4RE:B1b (10 μM fcGMP, CNGB1b with CNGA4RE and CNGA2TM), “robust binding”.
